Data reported in patent US9078949B2, “Compositions of partially deacetylated chitin derivatives” (GENIS HF., priority 2005, dated 2015).
Where two headings read alike, the source gives them in different places.

Legend:
Chitinase A [1] = molecular target: T1, Chitinase A (Serratia marcescens, UniProt P07254); test: Blocking of Chitinase A activity (4-MU-A3 substrate, fluorescence); assay type: biochemical; conditions: for blocking of chitinase activity: pH 7.4
Experimental: Chitooligosaccharides (ChOS) (lots No. G020418 and G020218) were fractionated into homologue fractions, either by cation exchange chromatography or gel permeation chromatography or by the combination of both methods. The products were freeze dried and analysed for structure and sequence by MALDI-TOF mass spectrometry. Three other un-fractionated ChOS lots from Genis were also analysed by the same MALDI-TOF method (lots No. G040823, G050421 and G050421UF; where UF stands for ultrafiltrated through 1 kDa membrane to reduce the content of DP≦5).
A purified Chitinase A preparation from S. marcescens was used as a standard Family 18 chitinase, and 4-methylumbelliferyl-beta-D-N,N′-triacetylchitotrioside (4-MU-A3), a chitin tetramer (A4) analogue, was used as a standard chitinase substrate.
The standard Chitinase A solution was 0.5 nM (500 pM) in 0.1 mg/ml BSA, 50 mM phosphate buffer pH 7.4 (Chit-A sol.) and the substrate solution was 40 μM 4-MU-A3 in 50 mM phosphate buffer pH 7.4.
Different concentration of each pure ChOS homologue (usually 0, 25, 50, 100, 200, 400 and 800 μM) was made in the substrate buffer. For the assay, 25 μl of the Chit-A solution was mixed with 25 μl of the substrate/blocking solution, incubated at 37° C. for 10 min. The reaction was stopped with 1.95 ml 0.2 M sodium […] buffer (Na2CO3). The formation of the product, 4-Methylumbelliferone (4-MU) was read for each reaction in a Perken-Elmer LS SOB Fluorometer. The excitation wavelength was 380 nm (5 nm adjusting slit) and the emission wavelength was 460 nm (4 nm adjusting slit). Each reaction was read in triplicate. […] Affinity of each homologue was calculated as inverted IC50.
Even tough the chitinase A has an optimal activity at pH 5.5, the pH for the blocking experiments was adjusted at pH 7.4. This was done in order to free the amine groups of ChOS from protons, since earlier pilot experiments performed at pH 5.5 indicated low blocking activities of the ChOS homologues. Also this pH better resembles the physiological pH of blood and other physiological fluids, better reflecting the behaviour of the oligosaccharides in the human body.

[2] = Absorption of chitooligosaccharides into the blood of a human volunteer (MALDI-TOF MS, GPC, HPIEC); assay type: in vivo; conditions: for Mass calc (HPIEC homologue): blood sample (7.0 ml) after 3 weeks of ChOS consumption
Experimental: Chitooligomers composed of N-acetyl glucosamine and glucosamine were prepared by Genis, Reykjavik, Iceland. Briefly, chitin was partially deacetylated in alkali, washed and hydrolysed to oligomers by chitinase. Oligomers were ultrafiltrated, desalted and spray dried to a fine white powder. Average degree of deacetylation was 47% (FA 0.53). Analysis and quantification of oligomers and homologues were performed, using the same methods as for the blood.
A voluntary subject was consuming daily 1.8 g of ChOS (Genis ehf; S41124-1K) for a period of 4 weeks. Blood samples were collected within a period of 6 weeks. The first sample was taken before consumption of ChOS. The following 4 samples were taken weekly starting 1 week after the first consumption. Sample 6 was taken 2 weeks after stopping the consumption of ChOS. The volume of each sample was 7.0 ml. The blood samples were centrifuged for 30 min at 3000 rpm. The serum was collected. Methanol and sodium chloride were added to a final concentration of 30% methanol and 0.1 mg/ml sodium chloride followed by another centrifugation step. Samples of 500 μl were filtered through 3 kDa cut-off membranes (ultrafiltration). The supernatant was filled up for 3 times. Appropriate filtrates were pooled, the methanol was removed in vacuum, and the samples were finally lyophilised.
The lyophilised samples (app. 100 μg) were redissolved in 100 μl of methanol/water (v/v 50:50). An aliquot of the solution was mixed on the target with 2 μl of a solution of DHB in 30% aqueous ethanol ([…]). The drop was dried under a gentle stream of air. Mass spectra were recorded on a Bruker Reflex II (Daltonik, Bremen, Germany) in the positive ion mode. For ionisation, a nitrogen laser (337 nm, 3 ns pulse width, 3 Hz) was used. All spectra were measured in the reflector mode using external calibration. Monoisotopic peaks are labelled in all mass spectra.
The lyophilised samples (appr. 100 μg) were redissolved in 100 μl of methanol/deuterium oxide (v/v 50:50). A 10-fold molar excess of hexadeutero acetic anhydride was added as well as 3 drops of glacial tetradeutero acetic acid. The solution was stirred at 30° C. for 12 h. The reaction was stopped by addition of an equimolar amount of ammonia. The solutions were lyophilised and redissolved in 100 μl of ammonia. The concentration of ammonia was set to a 10-fold molar excess with respect to the moles of N-acetyl glucosamine units (GlcNAc or A). The solution was stirred at 22° C. over night. The ammonia was removed in vacuum, followed by lyophilisation of the samples. […] The concentration of potassium hydroxide was set to a 2-fold molar excess with respect to the moles of GlcNAc units. The solution was stirred for 10 h at r. t. neutralized by addition of cation exchange resin (H^+ form) followed by filtration and lyophilisation of the filtrate.
MALDI-TOF mass spectra were taken as described in Example 4. The quantification of relative signal intensities leads to the composition of homologues in the mixture.
The samples are prepared as described under Homologue determination by MALDI-TOF MS. Subsequently, a standard was added to each sample. The standard, a chitin oligomer (An), has to be of the same DP+/−1 as the analyte. A serial dilution of this standard was used. A comparison of the signal intensities of the analyte with the standard gives the concentration of the analyte. […]
Mixtures of homologues (and oligomers) obtained from the GPC separation were analysed by HPIEC. […]

Chitinase A [3] = molecular target: T1, Chitinase A; test: Cleavage of oligomers by Chitinase A judged by MALDI-TOF (biostability); assay type: in vitro ADME, S. marcescens; conditions: assay conditions (pH 5.5 and pH 7.4)
[4] = molecular target: HC gp-39 (39-kDa Human Cartilage Glycoprotein) (Homo sapiens, UniProt P36222); test: Binding to HC gp-39 by intrinsic tryptophan fluorescence
Sequence of HC gp-39 (39-kDa Human Cartilage Glycoprotein) (P36222 22-383): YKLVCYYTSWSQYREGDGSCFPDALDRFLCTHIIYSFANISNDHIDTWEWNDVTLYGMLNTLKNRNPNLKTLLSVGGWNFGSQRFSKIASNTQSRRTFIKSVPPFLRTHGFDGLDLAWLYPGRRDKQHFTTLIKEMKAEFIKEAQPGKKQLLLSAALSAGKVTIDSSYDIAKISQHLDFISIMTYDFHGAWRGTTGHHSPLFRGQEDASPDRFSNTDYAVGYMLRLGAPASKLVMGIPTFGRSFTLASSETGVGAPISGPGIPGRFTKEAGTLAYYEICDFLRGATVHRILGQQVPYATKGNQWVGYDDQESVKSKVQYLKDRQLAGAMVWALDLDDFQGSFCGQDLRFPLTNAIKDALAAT
Experimental: The affinities of non-covalent complexes between ChOS and HC gp-39 were analysed making use of the change of the intrinsic tryptophan fluorescence of the protein under binding conditions. The change of fluorescence intensity is caused by ligand-induced changes of the solvent cover of tryptophan residues and positively correlated with the sugar concentration.
HC gp-39 was dissolved in 25 mM Tris-HCl buffer pH 7.4 containing 1 mM dithiothreitol to a final concentration of 1.00 μM (protein solution). Different concentrations of homologues were prepared in 25 mM Tris-HCl buffer pH 7.4 containing 1 mM dithiothreitol (sugar solution). […] The fluorescence was read for each reaction in a Perkin-Elmer LS SOB fluorescence spectrometer (Perkin-Elmer, Überlingen, Germany). […] Each reaction was measured in triplicate.
From the row fluorescence data the fluorescence of the blank was subtracted. F-F0 was plotted versus the concentration of the homologue and the data were fitted by non-linear regression to a one-site saturation model employing SigmaPlot® software to obtain binding isotherms. y=Bmax*x/(Kd+x) Bmax: fluorescence intensity for a saturated binding domain of HC gp-39 Kd: dissociation constant.

T1 sequence (P07254 24-563): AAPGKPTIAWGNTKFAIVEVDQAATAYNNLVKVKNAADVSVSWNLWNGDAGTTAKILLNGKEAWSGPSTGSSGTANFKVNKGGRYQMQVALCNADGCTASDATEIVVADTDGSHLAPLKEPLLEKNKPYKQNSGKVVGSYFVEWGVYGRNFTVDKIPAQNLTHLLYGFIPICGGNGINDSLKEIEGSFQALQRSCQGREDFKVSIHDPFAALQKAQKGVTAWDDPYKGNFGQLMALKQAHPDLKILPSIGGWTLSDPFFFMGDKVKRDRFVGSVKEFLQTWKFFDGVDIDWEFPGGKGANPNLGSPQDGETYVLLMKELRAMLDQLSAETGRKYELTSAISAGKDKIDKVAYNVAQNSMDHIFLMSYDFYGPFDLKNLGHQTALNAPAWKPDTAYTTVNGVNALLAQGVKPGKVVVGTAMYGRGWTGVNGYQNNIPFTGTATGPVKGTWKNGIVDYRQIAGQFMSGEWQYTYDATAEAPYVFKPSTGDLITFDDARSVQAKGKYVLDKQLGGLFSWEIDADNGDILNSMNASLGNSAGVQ

CC(=O)N[C@H]1[C@H](O[C@H]2[C@H](O)[C@@H](NC(C)=O)C(O)O[C@@H]2CO)O[C@H](CO)[C@@H](O[C@@H]2O[C@H](CO)[C@@H](O)[C@H](O)[C@H]2NC(C)=O)[C@@H]1O (stereo partly drawn) [Homologue A3]
IC50 (Chitinase A [1]): 219 µM | Mass calc (HPIEC homologue) ([2]; GPC, HPIEC and MALDI-TOF): 30 μg | concentration at 3 weeks ([2]; human, serum, oral, 1.8 g daily (ChOS mixture), blood sample after 3 weeks of ChOS consumption, GPC, HPIEC and MALDI-TOF, read-out: Conc (HPIEC homologue)): 4000 ng/mL

CC(=O)N[C@H]1[C@H](O[C@H]2[C@H](O)[C@@H](NC(C)=O)[C@H](O[C@H]3[C@H](O)[C@@H](NC(C)=O)C(O)O[C@@H]3CO)O[C@@H]2CO)O[C@H](CO)[C@@H](O[C@@H]2O[C@H](CO)[C@@H](O[C@@H]3O[C@H](CO)[C@@H](O[C@@H]4O[C@H](CO)[C@@H](O)[C@H](O)[C@H]4NC(C)=O)[C@H](O)[C@H]3NC(C)=O)[C@H](O)[C@H]2NC(C)=O)[C@@H]1O (stereo partly drawn) [Homologue A6]
cleavage by Chitinase A (Chitinase A [3]): cleaved

NC1C(OC2C(CO)OC(OC3C(CO)OC(OC4C(CO)OC(OC5C(CO)OC(OC6C(CO)OC(OC7C(CO)OC(OC8C(CO)OC(OC9C(CO)OC(O)C(N)C9O)C(N)C8O)C(N)C7O)C(N)C6O)C(N)C5O)C(N)C4O)C(N)C3O)C(N)C2O)OC(CO)C(O)C1O (stereo not drawn) [Homologue D9]
blocking of chitinase activity (Chitinase A [1]): poor blockers

N[C@H]1[C@H](O[C@H]2[C@H](O)[C@@H](N)[C@H](O[C@H]3[C@H](O)[C@@H](N)[C@H](O[C@H]4[C@H](O)[C@@H](N)[C@H](O[C@H]5[C@H](O)[C@@H](N)[C@H](O[C@H]6[C@H](O)[C@@H](N)C(O)O[C@@H]6CO)O[C@@H]5CO)O[C@@H]4CO)O[C@@H]3CO)O[C@@H]2CO)O[C@H](CO)[C@@H](O)[C@@H]1O (stereo partly drawn) [Homologue D6]
dissociation constant [4]: μmolar range | blocking of chitinase activity (Chitinase A [1]): poor blockers | IC50 (Chitinase A [1]; pH 7.4, 37° C., 10 min, 4-MU-A3 substrate, NB = no blocking found, read-out: IC50): 1980 µM

CC(=O)N[C@H]1[C@H](O[C@H]2[C@H](O)[C@@H](NC(C)=O)C(O)O[C@@H]2CO)O[C@H](CO)[C@@H](O)[C@@H]1O (stereo partly drawn) [Homologue A2]
Mass calc (HPIEC homologue) ([2]; GPC, HPIEC and MALDI-TOF): 270 μg | Conc (HPIEC homologue) ([2]; blood sample after 3 weeks of ChOS consumption, GPC, HPIEC and MALDI-TOF): 39 μg/mL | oligomers observed in blood sample ([2]; post 1 week of ChOS consumption, 1.8 g daily): traces

NC1C(OC2C(CO)OC(OC3C(CO)OC(OC4C(CO)OC(OC5C(CO)OC(OC6C(CO)OC(OC7C(CO)OC(OC8C(CO)OC(OC9C(CO)OC(OC%10C(CO)OC(OC%11C(CO)OC(OC%12C(CO)OC(O)C(N)C%12O)C(N)C%11O)C(N)C%10O)C(N)C9O)C(N)C8O)C(N)C7O)C(N)C6O)C(N)C5O)C(N)C4O)C(N)C3O)C(N)C2O)OC(CO)C(O)C1O (stereo not drawn) [Homologue D12]
blocking of chitinase activity (Chitinase A [1]): poor blockers
